{"source": "the supplement of paper PMC10307832", "assay_in_all_cases": "relative viability (nuclei count vs DMSO), 5 days (fraction); higher = more cells survive", "key": {"Pazopanib + Pemetrexed": {"compound": "Cc1ccc(Nc2nccc(N(C)c3ccc4c(C)n(C)nc4c3)n2)cc1S(N)(=O)=O [Pazopanib] + Nc1nc2[nH]cc(CCc3ccc(C(=O)N[C@@H](CCC(=O)O)C(=O)O)cc3)c2c(=O)[nH]1 [Pemetrexed] (partner 0.2 µM)", "in_short": "(§1)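 Relative viability equals treated-well nuclei counts divided by vehicle-well nuclei counts. Counts came from 4× images of lung cancer cell lines grown in 1536-well plates for 5 days after pin-tool dosing on the day after seeding. Dosing used one drug alone or a fixed anchor-drug dose plus five library-drug doses (not always all listed) in √10 steps, and values are medians of duplicate plates.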"}, "Ponatinib + Luminespib": {"compound": "Cc1ccc(C(=O)Nc2ccc(CN3CCN(C)CC3)c(C(F)(F)F)c2)cc1C#Cc1cnc2cccnn12 [Ponatinib] + CCNC(=O)c1noc(-c2cc(C(C)C)c(O)cc2O)c1-c1ccc(CN2CCOCC2)cc1 [Luminespib] (partner 0.01 µM)", "in_short": "as §1"}, "Ponatinib + Crizotinib": {"compound": "Cc1ccc(C(=O)Nc2ccc(CN3CCN(C)CC3)c(C(F)(F)F)c2)cc1C#Cc1cnc2cccnn12 [Ponatinib] + C[C@@H](Oc1cc(-c2cnn(C3CCNCC3)c2)cnc1N)c1c(Cl)ccc(F)c1Cl [Crizotinib] (partner 1 µM)", "in_short": "as §1"}, "Pazopanib + Bortezomib": {"compound": "Cc1ccc(Nc2nccc(N(C)c3ccc4c(C)n(C)nc4c3)n2)cc1S(N)(=O)=O [Pazopanib] + CC(C)C[C@H](NC(=O)[C@H](Cc1ccccc1)NC(=O)c1cnccn1)B(O)O [Bortezomib] (partner 0.002 µM)", "in_short": "as §1"}}}
{"cell line": "UMC-11", "values": [{"measurement": "relative viability", "setting": "Pazopanib + Pemetrexed; first compound 0.01 µM", "result": 0.743}, {"measurement": "relative viability", "setting": "Pazopanib + Pemetrexed; first compound 0.03162 µM", "result": 0.908}, {"measurement": "relative viability", "setting": "Pazopanib + Pemetrexed; first compound 0.1 µM", "result": 0.871}, {"measurement": "relative viability", "setting": "Pazopanib + Pemetrexed; first compound 0.3162 µM", "result": 0.701}, {"measurement": "relative viability", "setting": "Pazopanib + Pemetrexed; first compound 1 µM", "result": 0.844}, {"measurement": "relative viability", "setting": "Ponatinib + Luminespib; first compound 0.002 µM", "result": 1.07}, {"measurement": "relative viability", "setting": "Ponatinib + Luminespib; first compound 0.006325 µM", "result": 1.16}, {"measurement": "relative viability", "setting": "Ponatinib + Luminespib; first compound 0.06325 µM", "result": 1.04}, {"measurement": "relative viability", "setting": "Ponatinib + Luminespib; first compound 0.2 µM", "result": 0.979}, {"measurement": "relative viability", "setting": "Ponatinib + Crizotinib; first compound 0.002 µM", "result": 0.678}, {"measurement": "relative viability", "setting": "Ponatinib + Crizotinib; first compound 0.006325 µM", "result": 0.603}, {"measurement": "relative viability", "setting": "Ponatinib + Crizotinib; first compound 0.06325 µM", "result": 0.786}, {"measurement": "relative viability", "setting": "Ponatinib + Crizotinib; first compound 0.2 µM", "result": 0.612}, {"measurement": "relative viability", "setting": "Pazopanib + Bortezomib; first compound 0.01 µM", "result": 0.668}, {"measurement": "relative viability", "setting": "Pazopanib + Bortezomib; first compound 0.03162 µM", "result": 0.988}, {"measurement": "relative viability", "setting": "Pazopanib + Bortezomib; first compound 0.1 µM", "result": 0.781}, {"measurement": "relative viability", "setting": "Pazopanib + Bortezomib; first compound 0.3162 µM", "result": 0.662}, {"measurement": "relative viability", "setting": "Pazopanib + Bortezomib; first compound 1 µM", "result": 0.976}]}
